Each structure is given as a SMILES string. Active and inactive are the calls of the source.

The values below come from ChEMBL document CHEMBL1153175, “Pyrazole derived from (+)-3-carene; a novel potent, selective scaffold for sphingosine-1-phosphate (S1P(1)) receptor agonists” (Bioorg Med Chem Lett, 2010).

Data set [1] has as its target T1, Sphingosine 1-phosphate receptor 5 (Homo sapiens, UniProt Q9H228). Put plainly: Agonist activity at human SIP5 receptor by [35S]GTPgammaS binding assay. Type of data set: functional.
Data set [2] addresses T1, Sphingosine 1-phosphate receptor 5. Put plainly: Agonist activity at human SIP5 receptor at 10 uM by [35S]GTPgammaS binding assay relative to S1P. In kind it is functional. Background: GTPγS resists hydrolysis and so accumulates on activated G proteins.
Data set [3] addresses T2, Sphingosine 1-phosphate receptor 1 (Homo sapiens, UniProt P21453). Put plainly: Agonist activity at human SIP1 receptor expressed in CHO cells by [35S]GTPgammaS binding assay. In kind it is functional, cell-based.
The target of data set [4] is T3, Sphingosine 1-phosphate receptor 3 (Homo sapiens, UniProt Q99500). The data set can be described thus: Agonist activity at human SIP3 receptor by [35S]GTPgammaS binding assay. Type of data set: functional.
In data set [5] the target is T3, Sphingosine 1-phosphate receptor 3. The data set can be described thus: Agonist activity at human SIP3 receptor at 10 uM by [35S]GTPgammaS binding assay relative to S1P. In kind it is functional.
The target in data set [6] is T4, Sphingosine 1-phosphate receptor 4 (Homo sapiens, UniProt O95977).
T4 sequence (O95977 whole entry): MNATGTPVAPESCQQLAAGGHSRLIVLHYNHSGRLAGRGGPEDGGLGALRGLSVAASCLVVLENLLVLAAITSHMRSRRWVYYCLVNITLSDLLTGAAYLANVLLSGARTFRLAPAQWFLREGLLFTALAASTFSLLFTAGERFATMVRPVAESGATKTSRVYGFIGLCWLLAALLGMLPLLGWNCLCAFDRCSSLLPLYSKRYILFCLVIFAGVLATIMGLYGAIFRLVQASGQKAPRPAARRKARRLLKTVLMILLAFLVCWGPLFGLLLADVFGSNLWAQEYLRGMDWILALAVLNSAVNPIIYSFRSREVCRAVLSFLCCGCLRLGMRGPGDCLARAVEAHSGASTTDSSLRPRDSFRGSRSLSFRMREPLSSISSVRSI
The data set can be described thus: Agonist activity at human SIP4 receptor by [35S]GTPgammaS binding assay. Type of data set: functional.

For data set [7], the target named is T5, Sphingosine 1-phosphate receptor 4 (Homo sapiens) (UniProt O95977).
T5 sequence (whole entry): T4 sequence (O95977 whole entry)
Put plainly: Agonist activity at human SIP4 receptor at 10 uM by [35S]GTPgammaS binding assay relative to S1P. Type of data set: functional.

The target in data set [8] is T2, Sphingosine 1-phosphate receptor 1. The note with it: CHO, at 10 µM.
Description: Agonist activity at human SIP1 receptor expressed in CHO cells at 10 uM by [35S]GTPgammaS binding assay relative to S1P
In data set [9] the test system is Rattus norvegicus. The data set can be described thus: Reduction of lymphocytes count in Lewis rat blood at 3 mg/kg. po. In kind it is functional, organism-based. Details: dose 3 mg/kg.
The subject of data set [10] is Rattus norvegicus. The data set can be described thus: Reduction of lymphocytes count in Lewis rat blood at 0.3 mg/kg. iv. Type of data set: functional, organism-based. Also on record: dose 0.3 mg/kg.
Data set [11] in a line: Chemical stability at pH >7 assessed as half life. In kind it is physicochemical.
For data set [12], the species on record is Homo sapiens. Put plainly: Selectivity ratio, EC50 for human S1P1 receptor over EC50 for human S1P4 receptor.
Data set [13] is filed under the species Homo sapiens. The data set can be described thus: Selectivity ratio, EC50 for human S1P1 receptor over EC50 for human S1P5 receptor.

T1 sequence (Q9H228 whole entry): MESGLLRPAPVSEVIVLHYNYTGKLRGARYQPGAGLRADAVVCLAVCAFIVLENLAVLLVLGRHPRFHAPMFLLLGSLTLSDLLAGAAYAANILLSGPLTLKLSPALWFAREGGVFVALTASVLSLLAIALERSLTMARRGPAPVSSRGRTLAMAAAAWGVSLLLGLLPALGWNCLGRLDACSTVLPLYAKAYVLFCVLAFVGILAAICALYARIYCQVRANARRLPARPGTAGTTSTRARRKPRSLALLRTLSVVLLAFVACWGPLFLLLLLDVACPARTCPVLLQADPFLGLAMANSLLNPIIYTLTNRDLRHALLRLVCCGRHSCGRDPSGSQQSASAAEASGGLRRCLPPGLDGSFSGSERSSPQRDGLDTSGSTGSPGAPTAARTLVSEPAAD
T2 sequence (P21453 whole entry): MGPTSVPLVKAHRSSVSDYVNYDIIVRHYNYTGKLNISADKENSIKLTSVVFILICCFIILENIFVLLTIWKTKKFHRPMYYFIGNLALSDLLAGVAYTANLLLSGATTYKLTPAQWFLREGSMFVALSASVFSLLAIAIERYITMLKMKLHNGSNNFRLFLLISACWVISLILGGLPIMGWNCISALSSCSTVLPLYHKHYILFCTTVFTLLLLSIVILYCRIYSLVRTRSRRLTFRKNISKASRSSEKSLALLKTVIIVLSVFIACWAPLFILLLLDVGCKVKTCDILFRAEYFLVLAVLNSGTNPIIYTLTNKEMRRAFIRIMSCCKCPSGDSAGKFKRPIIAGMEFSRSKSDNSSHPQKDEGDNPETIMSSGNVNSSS
T3 sequence (Q99500 whole entry): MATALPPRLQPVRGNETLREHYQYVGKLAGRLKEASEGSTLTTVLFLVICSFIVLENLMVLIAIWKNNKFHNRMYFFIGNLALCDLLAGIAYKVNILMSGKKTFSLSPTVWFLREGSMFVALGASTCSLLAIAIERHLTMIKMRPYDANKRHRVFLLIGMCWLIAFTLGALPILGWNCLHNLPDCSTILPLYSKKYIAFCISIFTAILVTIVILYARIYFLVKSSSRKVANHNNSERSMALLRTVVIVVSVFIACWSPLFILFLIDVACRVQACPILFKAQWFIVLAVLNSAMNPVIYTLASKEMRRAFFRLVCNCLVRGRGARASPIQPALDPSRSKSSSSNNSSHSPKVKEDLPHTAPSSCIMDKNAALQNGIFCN

Usually EC50 stands for the midpoint of the concentration-response curve. Low values mean greater potency, high ones weaker potency. What is called Emax is the size of the effect at its maximum, as opposed to the concentration needed. For `Cc1nn(C(=O)/C=C/c2ccc(-c3ccccc3)cc2)c2c1[C@H]1[C@@H](C2)C1(C)C`, the EC50 was over 10000 nM in data set [1], 280 nM in [3], over 10000 nM in data set [4] and over 10000 nM in [6]. In addition, the Emax in data set [2] was 22%; in [5] it was 8%; in data set [7], 1%; in data set [8] it was 76%.
On to `Cc1nn(C(=O)CCc2ccccc2)c2c1[C@H]1[C@@H](C2)C1(C)C`, for which the EC50 was over 10000 nM in [1], 86 nM in data set [3], over 10000 nM in data set [4] and over 10000 nM in data set [6]. Moreover, the Emax was determined as 26% in data set [2], 38% in data set [5], 0% in data set [7] and 55% in data set [8].
With `Cc1nn(C(=O)/C=C/c2cccnc2)c2c1[C@H]1[C@@H](C2)C1(C)C`, the EC50 in data set [1] was 345 nM; in [3], 17 nM; in data set [4] it was over 1000 nM; in [6], 100 nM. The Emax stood at 87% in data set [2], 61% in data set [5], 30% in [7] and 90% in [8].
Turning to `Cc1nn(C(=O)/C=C/c2ccccc2Cl)c2c1[C@H]1[C@@H](C2)C1(C)C`, the EC50 in data set [1] was over 10000 nM; in data set [3], 16 nM; in data set [4], over 1000 nM; in data set [6] it was over 10000 nM. In addition, the Emax is -19% in data set [2], 69% in data set [5], -19% in data set [7] and 89% in data set [8].
In the case of `Cc1nn(C(=O)/C=C/C2CCCCC2)c2c1[C@H]1[C@@H](C2)C1(C)C`, the EC50 in [1], in [3], in data set [4] and in data set [6] was over 10000 nM throughout. Besides, the Emax was 29% in data set [2], 3% in [5], 15% in data set [7] and 18% in data set [8].
On to `Cc1nn(C(=O)/C=C/c2cccc(C(F)(F)F)c2)c2c1[C@H]1[C@@H](C2)C1(C)C`, for which the EC50 is 325 nM in [1], 26 nM in data set [3], over 10000 nM in data set [4] and over 10000 nM in data set [6]. The Emax in [2] came to 56%; in [5], 46%; in data set [7] it was 17%; in data set [8], 65%.
With `Cc1nn(C(=O)/C=C/c2ccc(S(N)(=O)=O)cc2)c2c1[C@H]1[C@@H](C2)C1(C)C`, the EC50 in data set [1] was over 10000 nM; in [3] it was 119 nM; in data set [4], over 1000 nM; in data set [6], over 10000 nM. Besides, the Emax in data set [2] is 16%; in data set [5] it was 68%; in [7] it was -22%; in data set [8], 68%.
As for `Cc1nn(C(=O)/C=C/c2cccc(S(N)(=O)=O)c2)c2c1[C@H]1[C@@H](C2)C1(C)C`, the EC50 came to 82 nM in data set [1], 11 nM in data set [3], 1350 nM in data set [4] and 116 nM in data set [6]. Further, the Emax in [2] stood at 76%; in data set [5], 84%; in data set [7], 21%; in [8], 92%.
In the case of `COc1ccc(/C=C/C(=O)n2nc(C)c3c2C[C@@H]2[C@H]3C2(C)C)cc1OC`, the EC50 is 900 nM in data set [1], 25 nM in data set [3], over 10000 nM in [4] and over 10000 nM in data set [6]. Besides, the Emax in [2] is 80%; in [5], 46%; in data set [7], 30%; in data set [8], 89%.
Take `Cc1nn(C(=O)/C=C/c2ccccc2)c2c1[C@H]1[C@@H](C2)C1(C)C`: the results for the EC50 in data set [1], in data set [4] and in [6] were 1760 nM, over 1000 nM and over 10000 nM, respectively. The Emax is 90% in [2], 94% in [5] and -2% in [7].
On to `Cc1nn(S(=O)(=O)/C=C/c2ccccc2)c2c1[C@H]1[C@@H](C2)C1(C)C`, for which the EC50 in [1], in data set [3], in data set [4] and in data set [6] was over 10000 nM each time. The Emax in data set [2] is -1%; in data set [5] it was -2%; in data set [7], -19%; in [8] it was 7%.
Usually half-life stands for the time needed for the level to fall by half in the phase considered. On to `Cc1nn(C(=O)/C=C/c2ccncc2)c2c1[C@H]1[C@@H](C2)C1(C)C`, for which the EC50 in data set [1] came to 130 nM; in data set [3], 7 nM; in data set [4] it was 345 nM; in [6], 100 nM. Besides, the Emax came out at 93% in data set [2], 83% in data set [5], 32% in [7] and 92% in data set [8]. Also, the result with Rattus norvegicus [9] and in the data set with Rattus norvegicus [10] was inactive. Further, the half-life in [11] is 3 h.
In the case of `CCCCCCC(=O)n1nc(C)c2c1C[C@@H]1[C@H]2C1(C)C`, the concentration for a half-maximal effect (EC50) in data set [1], in data set [3], in [4] and in data set [6] was over 10000 nM throughout. Further, the Emax in [2] is 2%; in [5], 44%; in data set [7] it was -6%; in data set [8], 25%.
For `Cc1nn(C/C=C/c2ccccc2)c2c1[C@H]1[C@@H](C2)C1(C)C`, the EC50 in data set [1], in data set [3], in data set [4] and in data set [6] was over 10000 nM throughout. The Emax came to 10% in data set [2], 14% in data set [5], 10% in [7] and 45% in data set [8].
Take `Cc1nn(C(=O)/C=C/c2cccc3[nH]ccc23)c2c1[C@H]1[C@@H](C2)C1(C)C`: the EC50 in data set [1] turned out to be 505 nM; in data set [3], 2 nM; in [4], 995 nM; in [6], 560 nM. For the same molecule, the Emax in data set [2] was 130%; in [5], 84%; in data set [7] it was 28%; in data set [8], 90%. Further, the Ratio EC50 in the data set listed under Homo sapiens [12] and in the data set filed under Homo sapiens [13] was 250 throughout. In addition, the outcome in the data set with Rattus norvegicus [9] and with Rattus norvegicus [10] was inactive.
